The source of these data is US4472305A, “Hexapeptide amides” (Sterling Drug Inc., priority 1983, dated 1984).

Where “and” joins values, the source holds several entries; their conditions need not be identical. Equal values may be shown once. Non-standard residues stand in square brackets, D forms with d. Residues, ends and D or L forms follow the SMILES beside them. dNMeW = CN[C@H](Cc1c[nH]c2ccccc12)C(=O)O; NMeF = CN[C@@H](Cc1ccccc1)C(=O)O; hPhe = N[C@@H](CCc1ccccc1)C(=O)O; NMeL = CN[C@@H](CC(C)C)C(=O)O; NMeNle = CCCC[C@H](NC)C(=O)O; NMeM = CN[C@@H](CCSC)C(=O)O; Nle = CCCC[C@H](N)C(=O)O

In general, IC50 refers to the concentration at which inhibition is half-maximal. Usually inhibition stands for the change of the read-out against control, counted positive when it falls.

For experiment [1], the target named is T1, SP receptor (Rattus norvegicus, UniProt P14600).
T1 construct: from tissue; host or cells: rat submaxillary gland (crude tissue suspension)
The experiment in a line: 3H-SP binding test, rat submaxillary gland tissue. The conditions noted are these: for IC50: 3H-SP Binding IC50(μM), rat submaxillary gland tissue (Examples 1-34); for inhibition at 30 µM: read-out: 3H-SP Binding % Inhibition. As to the method: (§1) Crude rat submaxillary gland or brain tissue is suspended in buffer containing protease inhibitors (and calcium ions and magnesium ions in the case of brain tissue) and incubated under nitrogen atmosphere with ^3 H-SP and test compound. The bound SP is then separated from free SP by filtration and quantitated by liquid scintillation spectroscopy. This test meets the criteria of reversibility, saturability, sensitivity to known SP agonists and antagonists, and specificity for an SP receptor binding assay.
(§2) With regard to reversibility, addition of unlabelled SP causes a gradual decrease in bound ^3 H-SP, showing that SP is not irreversibly bound to the receptors in the tissue. With regard to saturability, the amount of bound ^3 H-SP in the preparation increases in direct proportion to the concentration of ^3 H-SP added until a saturation point is reached. […] With regard to sensitivity, known SP agonists and antagonists inhibit ^3 H-SP binding.
(§3) The results are expressed either as percent inhibition at a concentration of 30 micromoles per liter (μM) or as an IC50 calculated as the concentration in micromoles per liter.
(§4) The ^3 H-SP binding test results were obtained using rat submaxillary gland tissue for Examples 1-34 and rat brain tissue for Examples 35-42.

Experiment [2] deals with longitudinal muscle of guinea pig terminal ileum. The experiment in a line: Guinea pig ileum test (SP agonist and antagonist effect). It is filed as cell-based. The note with it: for Guinea Pig Ileum pA2: antagonism of reference agonist, Schild plot analysis; for Guinea Pig Ileum % Agonism (potency relative to SP): contraction of ileum longitudinal muscle strips, relative molar potency vs SP. As to the method:
Strips of longitudinal muscle derived from terminal ileum of adult male guinea pigs (Charles River, 400-600 g.) are mounted in 5-ml. organ baths containing oxygenated Krebs solution containing 1 μM each of atropine and pyrilamine maintained at 30-33 C. and connected to isometric transducers. Following tissue equilibration and repeated washing (45-60 min.), SP or an appropriate reference agonist is added cumulatively to the bath and contractions of the tissue are recorded. The bath is washed thoroughly and 30-45 min. is allowed to elapse before construction of a second reference agonist curve to assure reproducibility of the responses. Test compounds are similarly evaluated for agonist activity up to a maximum concentration of 10-100 μM. […] When appropriate, relative molar potency ratios are calculated (EC50 reference/ED50 test drug). […] The effects of several concentrations of test antagonist, pooled across separate experiments, provide dose-ratio (EC50 shift) data for a standard Schild plot analysis, with computation of the pA2.

For the next experiment, the system named is rat vas deferens. The experiment can be described thus: Rat vas deferens test (SP antagonist effect). It is filed as cell-based. The conditions noted are these: reversal of potentiation by 10 μM SP of electrically induced contractions. As to the method:
Rat vasa deferentia are suspended in organ baths containing warmed, oxygenated Krebs solution and repetitively field-stimulated (0.1 Hz., 1 msec. duration, monophasic pulses) through platinum wire ring electrodes. Rapid, regular contractions of the muscle are recorded via transducers on a Grass polygraph. SP and related tachykinins added to the bath evoke a dose-dependent, stable potentiation of these electrically-induced contractions. For routine screening, a 10 μM concentration of SP is applied to all tissues to produce a 2-6 fold increase in electrically-stimulated twitch height. SP antagonist compounds (1-30 μM) produce an immediate, dose-related reversal of the response of the tissue to SP, which is quantified by determination of an IC50.

For experiment [3], the target named is T1, SP receptor. The experiment in a line: 3H-SP binding test, rat brain tissue. The note with it: rat brain tissue (Examples 35-42); for inhibition at 30 µM: 30 μM test compound. As to the method: as §1, §2, §3, §4

T1 sequence (P14600 whole entry): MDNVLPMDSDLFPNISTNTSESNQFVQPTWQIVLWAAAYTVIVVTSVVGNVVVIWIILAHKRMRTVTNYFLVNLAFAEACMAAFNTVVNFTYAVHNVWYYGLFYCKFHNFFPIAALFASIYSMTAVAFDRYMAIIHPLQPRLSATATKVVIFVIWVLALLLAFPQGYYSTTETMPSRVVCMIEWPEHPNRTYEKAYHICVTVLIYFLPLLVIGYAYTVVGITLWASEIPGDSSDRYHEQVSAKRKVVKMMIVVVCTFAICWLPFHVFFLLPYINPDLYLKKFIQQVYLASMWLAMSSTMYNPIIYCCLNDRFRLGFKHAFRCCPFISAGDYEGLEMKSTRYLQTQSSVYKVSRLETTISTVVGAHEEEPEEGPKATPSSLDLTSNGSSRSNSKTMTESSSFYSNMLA

In the case of `CSCC[C@H](NC(=O)[C@H](CC(C)C)NC(=O)[C@@H](Cc1c[nH]c2ccccc12)NC(=O)[C@H](Cc1ccccc1)NC(=O)[C@@H](Cc1ccccc1)NC(=O)[C@@H]1CCCN1)C(N)=O` [Example 12, HPro-DPhe-Phe-DTrp-Leu-MetNH2] (H-P[dF]F[dW]LM-NH2), on SP receptor [1], the IC50 stood at 26.8 µM and the inhibition at 30 µM was 69%. In experiment [2], the “Guinea Pig Ileum pA2” value was 5.6 and the “Guinea Pig Ileum % Agonism (potency relative to SP)” value is listed as 0.0001%. Further, the IC50 in the experiment with rat vas deferens stood at 13 µM.

With `CSCC[C@H](NC(=O)[C@H](CC(C)C)NC(=O)[C@@H](Cc1c[nH]c2ccccc12)NC(=O)[C@H](Cc1ccccc1)NC(=O)[C@@H](Cc1c[nH]c2ccccc12)NC(=O)[C@@H]1CCCN1)C(N)=O` [Example 17, HPro-DTrp-Phe-DTrp-Leu-MetNH2] (H-P[dW]F[dW]LM-NH2), the IC50 on SP receptor [1] is 9.7 µM and 16.1 µM. Besides, in experiment [2], the “Guinea Pig Ileum pA2” value is on record as 5.7 and the “Guinea Pig Ileum % Agonism (potency relative to SP)” value was < 0.01%. Moreover, in the experiment on rat vas deferens, the IC50 came out at 4.1 µM.

Take `CSCC[C@H](NC(=O)[C@H](CC(C)C)NC(=O)[C@@H](Cc1ccccc1)NC(=O)[C@H](Cc1ccccc1)NC(=O)[C@@H](Cc1ccccc1)NC(=O)[C@@H]1CCCN1)C(N)=O` [Example 23, HPro-DPhe-Phe-DPhe-Leu-MetNH2] (H-P[dF]F[dF]LM-NH2): at SP receptor [1], the inhibition at 30 µM was determined as 53%. Besides, in experiment [2], the “Guinea Pig Ileum pA2” value is 5.4 and the “Guinea Pig Ileum % Agonism (potency relative to SP)” value is < 0.001%. Further, the IC50 with rat vas deferens was 20 µM.

In the case of `CSCC[C@H](NC(=O)[C@H](CC(C)C)NC(=O)[C@@H](Cc1ccccc1)NC(=O)[C@H](CCc1ccccc1)NC(=O)[C@@H](Cc1ccccc1)NC(=O)[C@@H]1CCCN1)C(N)=O` [Example 29, HPro-DPhe-Hfe-DPhe-Leu-MetNH2] (H-P[dF][hPhe][dF]LM-NH2), on SP receptor [1], the inhibition at 30 µM was found to be 64%. For the same compound, the IC50 in the experiment on rat vas deferens was > 40 µM.

`CCCC[C@H](NC(=O)[C@H](CC(C)C)NC(=O)[C@@H](Cc1ccccc1)NC(=O)[C@H](Cc1ccccc1)NC(=O)[C@@H](Cc1ccccc1)NC(=O)[C@@H]1CCCN1)C(N)=O` [Example 31, HPro-DPhe-Phe-DPhe-Leu-NleNH2] (H-P[dF]F[dF]L[Nle]-NH2): the inhibition at 30 µM on SP receptor [1] was found to be 47%. Besides, the IC50 with rat vas deferens stood at 30 µM.

Turning to `CSCC[C@H](NC(=O)[C@H](CC(C)C)N(C)C(=O)[C@@H](Cc1c[nH]c2ccccc12)NC(=O)[C@H](Cc1ccccc1)NC(=O)[C@@H](Cc1c[nH]c2ccccc12)NC(=O)[C@@H]1CCCN1)C(N)=O` [Example 35, HPro-DTrp-Phe-DTrp-MeLeu-MetNH2] (H-P[dW]F[dW][NMeL]M-NH2), on SP receptor [3], 30 µM produced 46% inhibition and the IC50 is 43.6 µM. Moreover, in experiment [2], the “Guinea Pig Ileum pA2” value turned out to be 6.3.

At SP receptor [3], `CSCC[C@@H](C(N)=O)N(C)C(=O)[C@H](CC(C)C)NC(=O)[C@@H](Cc1c[nH]c2ccccc12)NC(=O)[C@H](Cc1ccccc1)NC(=O)[C@@H](Cc1c[nH]c2ccccc12)NC(=O)[C@@H]1CCCN1` [Example 36, HPro-DTrp-Phe-DTrp-Leu-MeMetNH2] (H-P[dW]F[dW]L[NMeM]-NH2) gave an inhibition at 30 µM of 82% and a 50% inhibitory concentration (IC50) of 11.5 µM. Further, the “Guinea Pig Ileum pA2” value in experiment [2] was determined as 6.3.

At SP receptor [3], `CSCC[C@H](NC(=O)[C@H](CC(C)C)NC(=O)[C@@H](Cc1c[nH]c2ccccc12)NC(=O)CNC(=O)[C@@H](Cc1c[nH]c2ccccc12)NC(=O)[C@@H]1CCCN1)C(N)=O` [Example 39, HPro-DTrp-Gly-DTrp-Leu-MetNH2] (H-P[dW]G[dW]LM-NH2) yielded an inhibition at 30 µM of 46%.

In turn, `CSCC[C@H](NC(=O)[C@H](CC(C)C)NC(=O)CNC(=O)[C@H](Cc1ccccc1)NC(=O)[C@H](Cc1ccccc1)N(C)C(=O)[C@@H]1CCCN1)C(N)=O` [Example 40, HPro-MePhe-Phe-Gly-Leu-MetNH2] (H-P[NMeF]FGLM-NH2) yielded an inhibition at 30 µM at SP receptor [3] of 9%.

At SP receptor [3], `CSCC[C@H](NC(=O)[C@H](CC(C)C)NC(=O)[C@@H](Cc1c[nH]c2ccccc12)N(C)C(=O)[C@H](Cc1ccccc1)NC(=O)[C@@H](Cc1c[nH]c2ccccc12)NC(=O)[C@@H]1CCCN1)C(N)=O` [Example 41, HPro-DTrp-Phe-MeDTrp-Leu-MetNH2] (H-P[dW]F[dNMeW]LM-NH2) came in with an inhibition at 30 µM of 79% and an IC50 of 13.3 µM.

For the compound `CCCC[C@@H](C(N)=O)N(C)C(=O)[C@H](CC(C)C)NC(=O)[C@@H](Cc1c[nH]c2ccccc12)NC(=O)[C@H](Cc1ccccc1)NC(=O)[C@@H](Cc1c[nH]c2ccccc12)NC(=O)[C@@H]1CCCN1` [Example 42, HPro-DTrp-Phe-DTrp-Leu-MeNleNH2] (H-P[dW]F[dW]L[NMeNle]-NH2), at SP receptor [3], at 30 µM the inhibition was 81%.
